Source: patent US10899738B2 (THE REGENTS OF THE UNIVERSITY OF MICHIGAN, priority 2016, dated 2021)

What follows are compounds tested against menin protein (Homo sapiens (Human), UniProt O00255) (assay: biochemical). Settings: FP competitive binding; menin protein 4 nM, FAM-MM2 probe 2 nM.
Format: binding
Summary of the method: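 Test compounds displaced FAM-MM2 (2 nM) from 4 nM menin after 30 min equilibration at room temperature in PBS buffer containing bovine γ-globulin, 4% DMSO and Triton X-100. Binding was followed by fluorescence polarization. Competition curves were fitted by nonlinear regression to give IC50 and Ki.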

menin protein, sequence (O00255 whole entry): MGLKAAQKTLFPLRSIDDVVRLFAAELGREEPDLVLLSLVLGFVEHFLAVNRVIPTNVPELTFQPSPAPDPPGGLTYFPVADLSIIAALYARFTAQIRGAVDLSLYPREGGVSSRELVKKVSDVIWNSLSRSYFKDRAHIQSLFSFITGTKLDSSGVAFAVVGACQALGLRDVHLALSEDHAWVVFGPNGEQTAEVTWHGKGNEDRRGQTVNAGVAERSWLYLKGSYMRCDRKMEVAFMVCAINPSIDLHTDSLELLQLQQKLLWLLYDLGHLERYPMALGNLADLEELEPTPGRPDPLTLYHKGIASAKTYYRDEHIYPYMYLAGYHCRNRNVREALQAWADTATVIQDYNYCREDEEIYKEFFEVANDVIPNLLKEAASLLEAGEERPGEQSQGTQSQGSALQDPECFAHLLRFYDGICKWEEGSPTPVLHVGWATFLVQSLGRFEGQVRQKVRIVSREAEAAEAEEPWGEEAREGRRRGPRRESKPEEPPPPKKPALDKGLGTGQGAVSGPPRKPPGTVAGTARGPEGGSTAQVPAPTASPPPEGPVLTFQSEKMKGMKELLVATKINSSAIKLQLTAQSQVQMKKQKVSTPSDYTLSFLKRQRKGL

Menin Binding Affinity IC50 (μM) | Compound
No inhibition | N#Cc1ccc(OCCCNc2ccc(C(O)(c3ccccc3)C3CCCC3)cn2)cc1 (centres unmarked) [compound 125, 4-(3-((5-(cyclopentyl(hydroxy)(phenyl)methyl)pyridin-2-yl)amino)propoxy)benzonitrile]
No inhibition | CCN1Cc2ccccc2C(C2CCCC2)(C2CCN(Cc3ccccc3Oc3ccc(S(=O)(=O)c4ccncc4)cc3)CC2)C1 (centres unmarked) [compound 162, 4-cyclopentyl-2-ethyl-4-(1-(2-(4-(pyridin-4-ylsulfonyl)phenoxy)benzyl)piperidin-4-yl)-1,2,3,4-tetrahydroisoquinoline]

Same assay, conditions: FP competitive binding; menin protein 4 nM, FAM-MM2 probe 2 nM; read-out: Menin Binding Affinity IC50

Compound | IC50
COC(=O)N[C@@H]1CCC[C@H]1C(C#N)(c1ccccc1)C1CCN(CC2CN(c3ccc(S(=O)(=O)c4ccncc4)cc3)C2)CC1 (mixture of isomers) [Cpd. No. 346, methyl (rac-(1R,2S)-2-(cyano(phenyl)(1-((1-(4-(pyridin-4-ylsulfonyl)phenyl)azetidin-3-yl)methyl)piperidin-4-yl)methyl)cyclopentyl)carbamate] | 0.569 µM
N#CC(c1ccccc1)(C1CCN(CC2CN(c3ccc(S(=O)(=O)c4ccncc4)cc3)C2)CC1)[C@H]1CCC[C@@H]1OC(=O)N1CCC1 (mixture of isomers) [compound 221, rac-(1S,2R)-2-(cyano(phenyl)(1-((1-(4-(pyridin-4-ylsulfonyl)phenyl)azetidin-3-yl)methyl)piperidin-4-yl)methyl)cyclopentyl azetidine-1-carboxylate] | 0.075 µM
N#Cc1ccc(N2CC(CN3CCC(C4(C5CCCC5)NCCc5ccccc54)CC3)C2)cc1 (centres unmarked) [Cpd. No. 129, 4-(3-((4-(1-cyclopentyl-1,2,3,4-tetrahydroisoquinolin-1-yl)piperidin-1-yl)methyl)azetidin-1-yl)benzonitrile] | 0.036 µM
CS(=O)(=O)c1ccc(N2CC(CN3CCC(C4(C5CCCC5)C(=O)N(Cc5ccccc5)Cc5ccccc54)CC3)C2)cc1 (centres unmarked) [compound 25, 2-benzyl-4-cyclopentyl-4-(1-((1-(4-(methylsulfonyl)phenyl)azetidin-3-yl)methyl)piperidin-4-yl)-1,4-dihydroisoquinolin-3(2H)-one] | 2.7 µM
O=S(=O)(c1ccc(N2CC(CN3CCC(C4(C5CCCC5)CN(CCF)Cc5ccccc54)CC3)C2)cc1)C1CC1 (centres unmarked) [compound 47, 4-cyclopentyl-4-(1-((1-(4-(cyclopropylsulfonyl)phenyl)azetidin-3-yl)methyl)piperidin-4-yl)-2-(2-fluoroethyl)-1,2,3,4-tetrahydroisoquinoline] | 0.137 µM
CN([C@H]1CCC[C@@H]1C(C#N)(c1ccccc1)C1CCN(CC2CN(c3ccc(S(=O)(=O)C4CC4)cc3)C2)CC1)S(C)(=O)=O (mixture of isomers) [compound 273, rac-N-((1S,2R)-2-(cyano(1-((1-(4-(cyclopropylsulfonyl)phenyl)azetidin-3-yl)methyl)piperidin-4-yl)(phenyl)methyl)cyclopentyl)-N-methylmethanesulfonamide] | 37.6 µM
CC(=O)N1CCC[C@@H]1C(C#N)(c1ccccc1)C1CCN(CCCOc2ccc(C#N)cc2)CC1 (stereo partly drawn) [compound 331, 4-(3-(4-(((R)-1-acetylpyrrolidin-2-yl)(cyano)(phenyl)methyl)piperidin-1-yl)propoxy)benzonitrile] | 23.3 µM
CNC(=O)O[C@H]1CCC[C@@H]1C(C#N)(c1ccccc1)C1CCN(CC2CN(c3ccc([N+](=O)[O-])cc3)C2)CC1 (mixture of isomers) [compound 385, rac-(1S,2R)-2-(cyano(1-((1-(4-nitrophenyl)azetidin-3-yl)methyl)piperidin-4-yl)(phenyl)methyl)cyclopentyl methylcarbamate] | 0.013 µM
N#Cc1ccc(OCCCN2CCC(C3(C4CCCC4)NCCc4cc(F)ccc43)CC2)cc1 (centres unmarked) [compound 30, 4-(3-(4-(1-cyclopentyl-6-fluoro-1,2,3,4-tetrahydroisoquinolin-1-yl)piperidin-1-yl)propoxy)benzonitrile] | 0.439 µM
c1ccc(CN2CCC(CC3(C4CCCC4)NCCc4ccccc43)CC2)cc1 (centres unmarked) [compound 106, 1-((1-benzylpiperidin-4-yl)methyl)-1-cyclopentyl-1,2,3,4-tetrahydroisoquinoline] | 84.1 µM
N#Cc1ccc(OCCCN2CCC(C3(CC4CCCCC4)NCCc4ccccc43)CC2)cc1 (centres unmarked) [compound 251, 4-(3-(4-(1-(cyclohexylmethyl)-1,2,3,4-tetrahydroisoquinolin-1-yl)piperidin-1-yl)propoxy)benzonitrile] | 7.1 µM
CC(=O)O[C@@H]1CCC[C@H]1C(C#N)(c1ccccc1)C1CCN(CC2CN(c3ccc(S(=O)(=O)C4CC4)cc3)C2)CC1 (mixture of isomers) [compound 188, rac-((1R,2S)-2-(cyano(1-((1-(4-(cyclopropylsulfonyl)phenyl)azetidin-3-yl)methyl)piperidin-4-yl)(phenyl)methyl)cyclopentyl acetate] | 1.7 µM
COCC(C1CC1)C(C#N)(c1ccccc1)C1CCN(CCCOc2ccc(C#N)cc2)CC1 (centres unmarked) [compound 329] | 19 µM
CC(=O)N1CCC[C@H]1C(C#N)(c1ccccc1)C1CCN(CCCOc2ccc(C#N)cc2)CC1 (stereo partly drawn) [compound 330, 4-(3-(4-(((S)-1-acetylpyrrolidin-2-yl)(cyano)(phenyl)methyl)piperidin-1-yl)propoxy)benzonitrile] | 111 µM
CS(=O)(=O)N[C@@H]1CCC[C@H]1C(C#N)(c1ccccc1)C1CCN(CC2CN(c3ccc(S(=O)(=O)c4ccncc4)cc3)C2)CC1 (mixture of isomers) [compound 268, rac-N-((1R,2S)-2-(cyano(phenyl)(1-((1-(4-(pyridin-4-ylsulfonyl)phenyl)azetidin-3-yl)methyl)piperidin-4-yl)methyl)cyclopentyl) methanesulfonamide] | 4.7 µM
CC(=O)O[C@H]1CCC[C@@H]1C(C#N)(c1ccccc1)C1CCN(CC2CN(c3ccc(C(=O)O)cc3)C2)CC1 (mixture of isomers) [compound 388, rac-4-(3-((4-(((1R,2S)-2-acetoxycyclopentyl)(cyano) (phenyl)methyl)piperidin-1-yl)methyl)azetidin-1-yl)benzoic acid] | 15.1 µM
N#Cc1ccc(OCCCN2CCC(C3(Cc4ccccc4)NCCc4ccccc43)CC2)cc1 (centres unmarked) [compound 243, 4-(3-(4-(1-benzyl-1,2,3,4-tetrahydroisoquinolin-1-yl)piperidin-1-yl)propoxy)benzonitrile] | 4.2 µM
CN(C)S(=O)(=O)c1ccc(N2CC(CN3CCC(C4(C5CCCC5)NCCc5ccccc54)CC3)C2)cc1 (centres unmarked) [compound 88, 4-(3-((4-(1-cyclopentyl-1,2,3,4-tetrahydroisoquinolin-1-yl)piperidin-1-yl)methyl)azetidin-1-yl)-N,N-dimethylbenzenesulfonamide] | 0.075 µM
CN(C)C(=O)O[C@H]1CCC[C@@H]1C(C#N)(c1ccccc1)C1CCN(CC2CN(c3ccc(S(=O)(=O)c4ccncc4)cc3)C2)CC1 (mixture of isomers) [compound 220, rac-(1S,2R)-2-(cyano(phenyl)(1-((1-(4-(pyridin-4-ylsulfonyl)phenyl)azetidin-3-yl)methyl)piperidin-4-yl)methyl)cyclopentyl dimethylcarbamate] | 0.261 µM
CS(=O)(=O)c1ccc(N2CC(CN3CCC(C(C#N)(c4ccccc4)[C@H]4CCC[C@@H]4O)CC3)C2)cc1 (mixture of isomers) [compound 178, rac-2-((1R,2S)-2-hydroxycyclopentyl)-2-(1-((1-(4-(methylsulfonyl)phenyl)azitidin-3-yl)methyl)piperidin-4-yl)-2-phenylacetonitrile] | 6.5 µM
CCN1Cc2ccccc2C(C2CCCC2)(C2CCN(CC3(C)CN(c4ccc(S(=O)(=O)c5ccncc5)cc4)C3)CC2)C1 (centres unmarked) [compound 161, 4-cyclopentyl-2-ethyl-4-(1-((3-methyl-1-(4-(pyridin-4-ylsulfonyl)phenyl)azetidin-3-yl)methyl)piperidin-4-yl)-1,2,3,4-tetrahydroisoquinoline] | 0.021 µM
CNC(=O)O[C@H]1CCC[C@@H]1C(Cn1ccnc1)(c1ccccc1)C1CCN(CC2CN(c3ccc(C(F)(F)F)cc3)C2)CC1 (mixture of isomers) [compound 421, rac-(1S,2R)-2-(2-(1H-imidazol-1-yl)-1-phenyl-1-(1-((1-(4-(trifluoromethyl)phenyl)azetidin-3-yl)methyl)piperidin-4-yl)ethyl)cyclopentyl methylcarbamate] | 0.004 µM
CC(=O)O[C@@H]1CCC[C@H]1C(C#N)(c1cccc(F)c1)C1CCN(CC2CN(c3ccc(CC(F)(F)F)cc3)C2)CC1 (mixture of isomers) [compound 420, rac-(1R,2S)-2-(cyano(3-fluorophenyl)(1-((1-(4-(2,2,2-trifluoroethyl)phenyl)azetidin-3-yl)methyl)piperidin-4-yl)methyl)cyclopentyl acetate] | 11.6 µM
N#Cc1ccc(OCCCN2CCC(C(C#N)(CC(=O)N3CCCC3)c3ccccc3)CC2)cc1 (centres unmarked) [compound 306, 4-(3-(4-(1-cyano-3-oxo-1-phenyl-3-(pyrrolidin-1-yl)propyl)piperidin-1-yl)propoxy)benzonitrile] | 40 µM
CCO[C@@H]1CCC[C@H]1C(C#N)(c1ccccc1)C1CCN(CC2CN(c3ccc(S(C)(=O)=O)cc3)C2)CC1 (mixture of isomers) [compound 189, rac-2-((1S,2R)-2-ethoxycyclopentyl)-2-(1-((1-(4-(methylsulfonyl)phenyl)azetidin-3-yl)methyl)piperidin-4-yl)-2-phenylacetonitrile] | 20.5 µM
CNC(=O)O[C@H]1CCC[C@@H]1C(C#N)(c1ccccc1)C1CCN(CC2CN(c3ccc(C(=O)OC)cc3)C2)CC1 (mixture of isomers) [compound 373, methyl rac-4-(3-((4-(cyano((1R,2S)-2-((methylcarbamoyl)oxy)cyclopentyl)(phenyl)methyl)piperidin-1-yl)methyl)azetidin-1-yl)benzoate] | 0.112 µM
N#Cc1ccc(N2CC(CN3CCC(C4(C5CCCC5)NCCc5ccccc54)CC3)C2)nc1 (centres unmarked) [compound 110, 6-(3-((4-(1-cyclopentyl-1,2,3,4-tetrahydroisoquinolin-1-yl)piperidin-1-yl)methyl)azetidin-1-yl)nicotinonitrile] | 575 µM
